Article PMC4153969, “A Novel Suspension Formulation Enhances Intestinal Absorption of Macromolecules Via Transient and Reversible Transport Mechanisms” (Pharmaceutical Research, 2014)

Columns and labels:
Cynomolgus monkeys = experiment: 9-month chronic toxicity study, daily oral enteric-coated capsules; format: in vivo, Cynomolgus monkeys (Macaca fasicularis); conditions: compared to the negative control group (olive oil)
Experimental: During the dosing period, animals were fasted for 8 to 10 h prior to dosing, and the first feeding was given 2 h after dosing. Monkeys were observed twice daily for mortality, morbidity, and clinical signs of adverse health effects and qualitative food consumption. Weekly examinations were performed on each animal before drug administration and before terminal sacrifice. Pre-dose body weights were recorded (week −1) and weekly thereafter. Blood samples (~5 ml) were collected for hematology and serum chemistry from the femoral vein before drug administration and from surviving animals prior to the terminal necropsy.
A complete ophthalmic examination was performed on each monkey by a Diplomat of the American College of Veterinary Ophthalmologist veterinarian before animal selection/group assignment (pretest) and again, prior to study termination.
Electrocardiograms (ECGs) were obtained twice pre-study and were analyzed by a veterinary cardiologist for the presence of significant abnormalities. ECGs were also obtained following the 1st dose and at the 3, 6, and 9 months of dosing. Standard ECGs (10 Lead) were recorded at 50 mm/s. Using Lead II (or another appropriate lead), the RR, PR, and QT intervals, and QRS duration were measured and heart rate was determined. The QT interval was calculated using Bazett’s Rule. […]

in vivo [1] = conditions: cynomolgus monkey, plasma, sc, 0.1 mg, plasma octreotide, SC injection 0.1 mg daily
Experimental: Enteric-coated capsules containing octreotide (20 mg)/OS or olive oil were administrated daily per os to fasted monkeys for 9 months, and swallowed with 10 mL water. In addition, a 1 mL ampule containing octreotide acetate at a concentration of 0.1 mg/mL (Sandostatin®, Novartis Pharmaceuticals, East Hanover, NJ) was administered by daily subcutaneous (SC) injection to another monkeys group. Oral administration of OS in rodent studies was limited due to the lack of properly enteric coated mini-gelatin capsules. Thus, the OS, containing fluorescent marker molecules (see below) or octreotide was enterally injected via implanted cannulas.
On Day 1 and after 3, 6 and 9 months, whole-blood samples (3.0 mL) were collected at routine intervals after completion of oral octreotide dosing. Plasma octreotide levels were determined by a validated liquid chromatographic spectrometric method (PPD Laboratories, Richmond, VA) as described elsewhere ([18]). The maximum plasma concentration (Cmax) and time to Cmax (Tmax) were derived from the data. The area under the curve (AUC) from zero to the last sample with a concentration ≥LOQ [AUC(0-t)] was calculated using the linear trapezoidal method. Analysis of plasma octreotide concentration vs. time was performed using SAS® for Windows® Version 9.3. The primary pharmacokinetic end point variables (Cmax and AUC0-t) were compared using analysis of variance (ANOVA) with treatment time (1, 180, 270-d) as a within-subject (repeated measures)-factor and sex as a between-subject factor.

in vivo [2] = experiment: in vivo
Experimental: Octreotide acetate in saline was also injected subcutaneously to this animal model.
The octreotide immunoassay is based on a single-step, extraction-free, simultaneous assay procedure (Peninsula Laboratories, Division of Bachem, San Carlos, CA) designed to quantify octreotide concentrations. Briefly, octreotide standards (0.05–6.25 ng/mL) and rat plasma samples were diluted 1:10 with PBS, followed by addition of octreotide anti-rabbit antiserum antibody, biotinylated octreotide tracer, and assay buffer. Samples were washed and incubated with streptavidin–HRP. Optical density was read at a dual absorbance of 450 nm and 630 nm using an Enzyme-Linked Immunoassay (ELISA) reader (Multiskan EX Labsystems; Thermo Electron Corporation, Milford, MA) after addition of TMB solution and acidic stopping solution.
Results were expressed as mean ± SE. The area under plasma concentration–time profile measured from time zero to the last measurable plasma concentration was calculated according to the linear trapezoidal rule. Relative enteral bioavailability (rBA) following intra-jejunal administration of the OS formulation to rats was calculated compared with SC injection as follows: rBA%=AUCjejunum/AUCSC×DoseSC/Dosejejunum×100

Compound: C[C@@H](O)[C@@H]1NC(=O)[C@H](CCCCN)NC(=O)[C@@H](Cc2c[nH]c3ccccc23)NC(=O)[C@H](Cc2ccccc2)NC(=O)[C@@H](NC(=O)[C@H](N)Cc2ccccc2)CSSC[C@@H](C(=O)N[C@H](CO)[C@@H](C)O)NC1=O [octreotide acetate]
- clinical observation: hair and skin (Cynomolgus monkeys; both sexes): increased incidence of sparse hair and red discoloured skin
- clinical observation: feces (Cynomolgus monkeys): higher incidence of watery feces
- AUC(0-t) (in vivo [1]; female, Day 1, female monkeys): 64.3 ± 5.3 ng·h/mL
- AUC(0-t) (in vivo [1]; female, Day 180, female monkeys): 60.8 ± 6.9 ng·h/mL
- AUC(0-t) (in vivo [1]; female, Day 270, female monkeys): 49.6 ± 3 ng·h/mL
- AUC(0-t) (in vivo [1]; male, Day 1, male monkeys): 41.7 ± 8.6 ng·h/mL
- AUC(0-t) (in vivo [1]; male, Day 180, male monkeys): 46.2 ± 5.4 ng·h/mL
- AUC(0-t) (in vivo [1]; male, Day 270, male monkeys): 51.3 ± 11.3 ng·h/mL
- AUC(0-t) (in vivo [2]; Sprague-Dawley, rat, plasma, sc, 0.172 mg/kg): 205 ng·h/mL
- change in rat plasma peptide concentrations (in vivo [2]; enteral dosing in saline solution without OS, data not shown): negligible changes
